According to US11969428B2, “Methods and pharmaceutical compositions for treating lymphoid malignancy” (priority 2011, dated 2024):

What was measured:
Test in all cases: Ambit KinomeScan screening
Assay type in all cases: binding
Conditions in all cases: CAL-130 10 μM
ABL1(H396P) = molecular target: T1, ABL1(H396P) (Homo sapiens, UniProt P00519, H396P)
T1 construct: unspecified tag ("tagged kinases"); purchased Ambit (KinomeScan screening)
Method in brief: (§1)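 Read-out is % of control binding: the tagged kinase retained on an immobilized bait ligand when CAL-130 is present at 10 μM. A lower percentage reflects stronger compound interaction, and anything over 35% counts as no hit.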

BRAF(V600E) = molecular target: T2, BRAF(V600E) (Homo sapiens, UniProt P15056, V600E)
T2 construct: unspecified tag ("tagged kinases"); purchased Ambit (KinomeScan screening)
Method in brief: as §1

CDK2 = molecular target: T3, CDK2 (Homo sapiens, UniProt P24941)
T3 construct: purchased Ambit (KinomeScan screening)
Method in brief: as §1

CHEK1 = molecular target: T4, CHEK1 (Homo sapiens, UniProt O14757)
T4 construct: purchased Ambit (KinomeScan screening service)
Method in brief: as §1

CSF1R = molecular target: T5, CSF1R (Homo sapiens, UniProt P07333)
T5 construct: purchased Ambit (KinomeScan screening service)
Method in brief: as §1

CSNK1G1 = molecular target: T6, CSNK1G1 (Homo sapiens, UniProt Q9HCP0)
T6 construct: purchased Ambit (KinomeScan screening service)
Method in brief: as §1

CSNK1G2 = molecular target: T7, CSNK1G2 (Homo sapiens, UniProt P78368)
T7 construct: purchased Ambit (KinomeScan screening service)
Method in brief: as §1

DAPK1 = molecular target: T8, DAPK1 (Homo sapiens, UniProt P53355)
T8 construct: purchased Ambit (KinomeScan screening service)
Method in brief: as §1

DYRK1B = molecular target: T9, DYRK1B (Homo sapiens, UniProt Q9Y463)
T9 construct: unspecified tag ("tagged kinases"); purchased Ambit (KinomeScan screening service)
Method in brief: as §1

EGFR(L858R) = molecular target: T10, EGFR(L858R) (Homo sapiens, UniProt P00533, L858R)
T10 construct: unspecified tag; purchased Ambit (KinomeScan screening service)
Method in brief: as §1

EGFR(S752-I759DEL) = molecular target: T11, EGFR(S752-I759DEL) (Homo sapiens, UniProt P00533, DEL752-759)
T11 construct: unspecified tag; purchased Ambit (KinomeScan screening service)
Method in brief: as §1

EPHA4 = molecular target: T12, EPHA4 (Homo sapiens, UniProt P54764)
T12 construct: purchased Ambit (KinomeScan screening service)
Method in brief: as §1

EPHB2 = molecular target: T13, EPHB2 (Homo sapiens, UniProt P29323)
T13 construct: purchased Ambit (KinomeScan screening service)
Method in brief: as §1

FAK = molecular target: T14, FAK (Homo sapiens, UniProt Q05397)
T14 construct: unspecified tag ("tagged kinases"); purchased Ambit (KinomeScan screening service)
Method in brief: as §1

FLT3(D835H) = molecular target: T15, FLT3(D835H) (Homo sapiens, UniProt P36888, D835H)
T15 construct: unspecified tag; purchased Ambit (KinomeScan screening service)
Method in brief: as §1

HIPK4 = molecular target: T16, HIPK4 (Homo sapiens, UniProt Q8NE63)
T16 construct: Ambit (KinomeScan screening)
Method in brief: as §1

KIT(D816V) = molecular target: T17, KIT(D816V) (Homo sapiens, UniProt P10721, D816V)
T17 construct: purchased Ambit (KinomeScan screening)
Method in brief: as §1

MAP4K2 = molecular target: T18, MAP4K2 (Homo sapiens, UniProt Q12851)
T18 construct: Ambit (KinomeScan screening)
Method in brief: as §1

MST3 = molecular target: T19, MST3 (Homo sapiens, UniProt Q9Y6E0)
T19 construct: unspecified tag; purchased Ambit (KinomeScan screening panel)
Method in brief: as §1

MUSK = molecular target: T20, MUSK (Homo sapiens, UniProt O15146)
T20 construct: unspecified tag; purchased Ambit (KinomeScan screening panel)
Method in brief: as §1

NEK7 = molecular target: T21, NEK7 (Homo sapiens, UniProt Q8TDX7)
T21 construct: purchased Ambit (KinomeScan screening service)
Method in brief: as §1

PIK3CB = molecular target: T22, PIK3CB (Homo sapiens, UniProt P42338)
T22 construct: unspecified tag; purchased Ambit (KinomeScan screening panel)
Method in brief: as §1

PIK3CG = molecular target: T23, PIK3CG (Homo sapiens, UniProt P48736)
T23 construct: unspecified tag; purchased Ambit (KinomeScan screening panel)
Method in brief: as §1

PKN2 = molecular target: T24, PKN2 (Homo sapiens, UniProt Q16513)
T24 construct: purchased Ambit (KinomeScan screening service)
Method in brief: as §1

PLK3 = molecular target: T25, PLK3 (Homo sapiens, UniProt Q9H4B4)
T25 construct: purchased Ambit (KinomeScan screening service)
Method in brief: as §1

ROS1 = molecular target: T26, ROS1 (Homo sapiens, UniProt P08922)
T26 construct: unspecified tag (tagged kinase); purchased Ambit (KinomeScan screening)
Method in brief: as §1

RPS6KA2 = molecular target: T27, RPS6KA2 (Homo sapiens, UniProt Q15349)
T27 construct: unspecified tag (tagged kinase); purchased Ambit (KinomeScan screening)
Method in brief: as §1

SRC = molecular target: T28, SRC (Homo sapiens, UniProt P12931)
T28 construct: tag, kind not specified; purchased Ambit (KinomeScan screening service)
Method in brief: as §1

SRPK2 = molecular target: T29, SRPK2 (Homo sapiens, UniProt P78362)
T29 construct: purchased Ambit (KinomeScan screening service)
Method in brief: as §1

SRPK3 = molecular target: T30, SRPK3 (Homo sapiens, UniProt Q9UPE1)
T30 construct: purchased Ambit (KinomeScan screening service)
Method in brief: as §1

TNNI3K = molecular target: T31, TNNI3K (Homo sapiens, UniProt Q59H18)
T31 construct: unspecified tag (tagged kinase); purchased Ambit (KinomeScan screening)
Method in brief: as §1

TRKC = molecular target: T32, TRKC (Homo sapiens, UniProt Q16288)
T32 construct: tag, kind not specified; purchased Ambit (KinomeScan screening service)
Method in brief: as §1

ULK3 = molecular target: T33, ULK3 (Homo sapiens, UniProt Q6PHR2)
T33 construct: tag, kind not specified; purchased Ambit (KinomeScan screening service)
Method in brief: as §1

YANK3 = molecular target: T34, YANK3 (Homo sapiens, UniProt Q86UX6)
T34 construct: purchased Ambit (KinomeScan screening service)
Method in brief: as §1

YSK4 = molecular target: T35, YSK4 (Homo sapiens, UniProt Q56UN5)
T35 construct: purchased Ambit (KinomeScan screening service)
Method in brief: as §1

T23 sequence (P48736 whole entry): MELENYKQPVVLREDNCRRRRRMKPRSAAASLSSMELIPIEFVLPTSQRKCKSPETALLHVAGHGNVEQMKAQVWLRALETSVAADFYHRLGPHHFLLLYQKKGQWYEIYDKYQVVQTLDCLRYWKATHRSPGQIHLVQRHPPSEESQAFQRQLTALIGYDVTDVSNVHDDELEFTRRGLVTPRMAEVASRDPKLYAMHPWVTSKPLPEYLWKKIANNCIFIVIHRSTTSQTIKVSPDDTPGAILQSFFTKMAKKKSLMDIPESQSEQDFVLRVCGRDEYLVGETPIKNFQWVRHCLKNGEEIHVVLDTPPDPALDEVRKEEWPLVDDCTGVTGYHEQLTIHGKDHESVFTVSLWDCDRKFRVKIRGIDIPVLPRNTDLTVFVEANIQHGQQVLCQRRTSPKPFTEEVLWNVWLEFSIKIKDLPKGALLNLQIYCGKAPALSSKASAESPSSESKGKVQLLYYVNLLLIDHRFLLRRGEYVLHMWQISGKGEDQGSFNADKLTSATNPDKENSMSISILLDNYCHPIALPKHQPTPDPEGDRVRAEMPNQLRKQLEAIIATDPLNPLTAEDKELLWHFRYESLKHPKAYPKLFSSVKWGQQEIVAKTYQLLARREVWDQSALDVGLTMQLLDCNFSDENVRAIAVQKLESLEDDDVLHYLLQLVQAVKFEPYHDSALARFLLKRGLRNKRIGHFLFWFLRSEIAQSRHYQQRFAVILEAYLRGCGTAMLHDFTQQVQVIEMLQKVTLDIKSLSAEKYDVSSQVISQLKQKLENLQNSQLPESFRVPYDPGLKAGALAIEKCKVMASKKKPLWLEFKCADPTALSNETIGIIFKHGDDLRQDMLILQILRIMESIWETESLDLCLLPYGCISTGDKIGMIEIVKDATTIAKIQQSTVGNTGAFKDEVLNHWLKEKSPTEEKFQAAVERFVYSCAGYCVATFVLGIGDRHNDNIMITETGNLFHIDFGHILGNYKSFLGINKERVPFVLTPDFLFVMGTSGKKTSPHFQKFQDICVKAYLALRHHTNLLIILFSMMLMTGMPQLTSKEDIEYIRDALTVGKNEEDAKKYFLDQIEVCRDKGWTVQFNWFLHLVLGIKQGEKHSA
T22 sequence (P42338 whole entry): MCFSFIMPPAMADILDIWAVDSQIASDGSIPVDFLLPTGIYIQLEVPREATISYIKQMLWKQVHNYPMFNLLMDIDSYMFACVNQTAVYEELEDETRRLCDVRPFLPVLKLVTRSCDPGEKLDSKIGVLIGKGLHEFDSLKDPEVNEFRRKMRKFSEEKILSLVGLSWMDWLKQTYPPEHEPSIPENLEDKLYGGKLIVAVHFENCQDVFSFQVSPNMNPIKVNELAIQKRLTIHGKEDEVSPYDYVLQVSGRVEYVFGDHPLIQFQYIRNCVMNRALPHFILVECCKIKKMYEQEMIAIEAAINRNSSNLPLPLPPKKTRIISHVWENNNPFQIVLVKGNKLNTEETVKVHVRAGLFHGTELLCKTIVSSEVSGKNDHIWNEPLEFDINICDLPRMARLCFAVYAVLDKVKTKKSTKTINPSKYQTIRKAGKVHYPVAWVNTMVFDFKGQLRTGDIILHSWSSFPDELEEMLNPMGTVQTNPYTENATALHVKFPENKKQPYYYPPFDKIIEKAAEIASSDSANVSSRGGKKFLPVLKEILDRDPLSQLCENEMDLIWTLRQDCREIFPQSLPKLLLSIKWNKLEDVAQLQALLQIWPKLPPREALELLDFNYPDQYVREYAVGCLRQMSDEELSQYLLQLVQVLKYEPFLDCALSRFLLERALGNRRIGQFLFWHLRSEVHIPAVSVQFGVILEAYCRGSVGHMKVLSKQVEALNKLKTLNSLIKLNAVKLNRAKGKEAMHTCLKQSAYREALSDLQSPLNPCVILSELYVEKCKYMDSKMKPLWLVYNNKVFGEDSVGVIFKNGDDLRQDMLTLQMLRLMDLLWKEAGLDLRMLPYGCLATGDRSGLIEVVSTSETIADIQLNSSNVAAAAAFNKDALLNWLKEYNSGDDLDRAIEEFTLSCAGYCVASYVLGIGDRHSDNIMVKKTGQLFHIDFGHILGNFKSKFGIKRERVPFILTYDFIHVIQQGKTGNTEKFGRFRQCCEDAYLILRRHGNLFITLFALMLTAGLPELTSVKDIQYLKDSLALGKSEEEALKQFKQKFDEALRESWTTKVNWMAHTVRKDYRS
T16 sequence (Q8NE63 whole entry): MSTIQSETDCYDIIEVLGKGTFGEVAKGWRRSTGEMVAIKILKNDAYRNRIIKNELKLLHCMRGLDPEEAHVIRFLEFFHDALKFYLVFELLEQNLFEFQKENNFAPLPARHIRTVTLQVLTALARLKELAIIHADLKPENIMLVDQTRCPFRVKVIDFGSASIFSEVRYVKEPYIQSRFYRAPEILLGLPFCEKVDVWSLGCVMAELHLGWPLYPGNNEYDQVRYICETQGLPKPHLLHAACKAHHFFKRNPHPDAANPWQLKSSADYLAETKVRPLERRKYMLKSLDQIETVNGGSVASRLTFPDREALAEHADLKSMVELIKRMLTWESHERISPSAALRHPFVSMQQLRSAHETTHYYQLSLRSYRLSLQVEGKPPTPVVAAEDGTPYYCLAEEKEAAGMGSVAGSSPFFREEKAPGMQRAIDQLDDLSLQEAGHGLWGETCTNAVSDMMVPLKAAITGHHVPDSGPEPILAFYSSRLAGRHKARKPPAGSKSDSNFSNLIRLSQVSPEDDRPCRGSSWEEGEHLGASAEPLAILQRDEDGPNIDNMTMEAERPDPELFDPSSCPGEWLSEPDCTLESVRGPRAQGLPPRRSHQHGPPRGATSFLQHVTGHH
T9 sequence (Q9Y463 whole entry): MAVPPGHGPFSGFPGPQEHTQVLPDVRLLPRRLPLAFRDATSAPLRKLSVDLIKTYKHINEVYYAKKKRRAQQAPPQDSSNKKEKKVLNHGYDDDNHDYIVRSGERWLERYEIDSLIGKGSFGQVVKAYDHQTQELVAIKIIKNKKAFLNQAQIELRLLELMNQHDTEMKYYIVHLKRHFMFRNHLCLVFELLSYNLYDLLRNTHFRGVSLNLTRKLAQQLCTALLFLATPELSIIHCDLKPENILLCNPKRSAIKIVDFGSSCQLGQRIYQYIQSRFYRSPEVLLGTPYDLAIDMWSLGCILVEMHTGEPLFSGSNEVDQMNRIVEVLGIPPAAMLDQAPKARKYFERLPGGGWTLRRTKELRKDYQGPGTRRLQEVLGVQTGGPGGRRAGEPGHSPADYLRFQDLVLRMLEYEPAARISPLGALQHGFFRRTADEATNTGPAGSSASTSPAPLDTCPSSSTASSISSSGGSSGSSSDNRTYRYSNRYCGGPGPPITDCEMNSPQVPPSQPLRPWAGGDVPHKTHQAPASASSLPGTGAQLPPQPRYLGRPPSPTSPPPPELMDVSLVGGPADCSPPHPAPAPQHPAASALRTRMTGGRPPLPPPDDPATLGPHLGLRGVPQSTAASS
T25 sequence (Q9H4B4 whole entry): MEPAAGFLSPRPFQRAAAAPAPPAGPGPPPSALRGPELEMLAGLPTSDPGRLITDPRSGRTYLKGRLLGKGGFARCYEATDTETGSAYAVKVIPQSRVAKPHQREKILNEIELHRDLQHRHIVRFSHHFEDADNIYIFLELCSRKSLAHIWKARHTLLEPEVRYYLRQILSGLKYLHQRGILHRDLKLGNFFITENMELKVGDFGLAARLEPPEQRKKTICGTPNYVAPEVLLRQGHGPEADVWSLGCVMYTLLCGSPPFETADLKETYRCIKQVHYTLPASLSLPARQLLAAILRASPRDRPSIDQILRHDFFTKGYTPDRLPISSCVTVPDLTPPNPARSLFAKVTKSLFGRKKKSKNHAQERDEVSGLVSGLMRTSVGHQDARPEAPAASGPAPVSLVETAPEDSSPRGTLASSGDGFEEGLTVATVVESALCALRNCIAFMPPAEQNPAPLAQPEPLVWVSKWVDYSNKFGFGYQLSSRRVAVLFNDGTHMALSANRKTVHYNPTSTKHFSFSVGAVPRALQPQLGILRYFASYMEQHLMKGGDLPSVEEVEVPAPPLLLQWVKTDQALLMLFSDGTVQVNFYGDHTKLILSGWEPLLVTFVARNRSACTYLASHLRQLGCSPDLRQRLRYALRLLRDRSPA
T18 sequence (Q12851 whole entry): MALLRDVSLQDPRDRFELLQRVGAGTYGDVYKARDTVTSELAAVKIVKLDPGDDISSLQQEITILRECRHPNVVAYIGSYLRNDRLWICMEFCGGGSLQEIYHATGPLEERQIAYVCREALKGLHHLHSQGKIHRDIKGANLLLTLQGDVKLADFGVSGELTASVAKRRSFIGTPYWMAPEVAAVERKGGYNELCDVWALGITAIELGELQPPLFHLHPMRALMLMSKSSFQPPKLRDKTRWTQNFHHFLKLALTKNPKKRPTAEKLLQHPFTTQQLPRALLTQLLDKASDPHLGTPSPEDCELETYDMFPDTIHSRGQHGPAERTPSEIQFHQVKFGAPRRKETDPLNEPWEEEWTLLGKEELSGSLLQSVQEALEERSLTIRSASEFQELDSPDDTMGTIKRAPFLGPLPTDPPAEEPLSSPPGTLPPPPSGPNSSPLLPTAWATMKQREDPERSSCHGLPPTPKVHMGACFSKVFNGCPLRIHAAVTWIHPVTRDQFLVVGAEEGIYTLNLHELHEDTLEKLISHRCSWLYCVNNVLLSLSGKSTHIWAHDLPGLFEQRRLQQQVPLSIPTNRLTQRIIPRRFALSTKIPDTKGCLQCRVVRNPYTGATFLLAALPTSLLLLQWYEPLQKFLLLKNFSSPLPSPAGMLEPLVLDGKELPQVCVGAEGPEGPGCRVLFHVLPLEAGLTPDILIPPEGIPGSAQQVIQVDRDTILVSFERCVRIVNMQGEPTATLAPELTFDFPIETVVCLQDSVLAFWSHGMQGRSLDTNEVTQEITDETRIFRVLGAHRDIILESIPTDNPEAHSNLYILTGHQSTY

## Cc1ccccc1-n1c(C(C)Nc2nc(N)nc3nc[nH]c23)nc2cccc(C)c2c1=O (stereo not shown) [CAL-130]
ABL1(H396P)
  Percent of Control Binding: 100%
BRAF(V600E)
  Percent of Control Binding: 100%
CDK2
  Percent of Control Binding: 100%
CHEK1
  Percent of Control Binding: 100%
CSF1R
  Percent of Control Binding: 100%
CSNK1G1
  Percent of Control Binding: 100%
CSNK1G2
  Percent of Control Binding: 100%
DAPK1
  Percent of Control Binding: 100%
DYRK1B
  Percent of Control Binding: 100%
EGFR(L858R)
  Percent of Control Binding: 100%
EGFR(S752-I759DEL)
  Percent of Control Binding: 100%
EPHA4
  Percent of Control Binding: 100%
EPHB2
  Percent of Control Binding: 100%
FAK
  Percent of Control Binding: 100%
FLT3(D835H)
  Percent of Control Binding: 100%
HIPK4
  Percent of Control Binding: 100%
KIT(D816V)
  Percent of Control Binding: 100%
MAP4K2
  Percent of Control Binding: 100%
MST3
  Percent of Control Binding: 100%
MUSK
  Percent of Control Binding: 100%
NEK7
  Percent of Control Binding: 100%
PIK3CB; PI3KCB (Table 2)
  Percent of Control Binding: 10%
PIK3CB; PIK3CB (Table 1)
  Percent of Control Binding: 3.2%
PIK3CG; PI3KCG (Table 2)
  Percent of Control Binding: 1.2%
PIK3CG; PIK3CG / PI3Kγ (Table 1)
  Percent of Control Binding: 10%
PKN2
  Percent of Control Binding: 100%
PLK3
  Percent of Control Binding: 100%
ROS1
  Percent of Control Binding: 100%
RPS6KA2
  Percent of Control Binding: 100%
SRC
  Percent of Control Binding: 100%
SRPK2
  Percent of Control Binding: 100%
SRPK3
  Percent of Control Binding: 100%
TNNI3K
  Percent of Control Binding: 100%
TRKC
  Percent of Control Binding: 100%
ULK3
  Percent of Control Binding: 100%
YANK3
  Percent of Control Binding: 100%
YSK4
  Percent of Control Binding: 100%
